SMILES strings stand for the structures.

In the first assay the target is 5-aminolevulinate synthase (ALAS) (Mus musculus (Mouse), UniProt P08680). As to the kind of experiment: ALAS activity. It is filed as biochemical.
Chain of 5-aminolevulinate synthase (ALAS) (P08680 50-587): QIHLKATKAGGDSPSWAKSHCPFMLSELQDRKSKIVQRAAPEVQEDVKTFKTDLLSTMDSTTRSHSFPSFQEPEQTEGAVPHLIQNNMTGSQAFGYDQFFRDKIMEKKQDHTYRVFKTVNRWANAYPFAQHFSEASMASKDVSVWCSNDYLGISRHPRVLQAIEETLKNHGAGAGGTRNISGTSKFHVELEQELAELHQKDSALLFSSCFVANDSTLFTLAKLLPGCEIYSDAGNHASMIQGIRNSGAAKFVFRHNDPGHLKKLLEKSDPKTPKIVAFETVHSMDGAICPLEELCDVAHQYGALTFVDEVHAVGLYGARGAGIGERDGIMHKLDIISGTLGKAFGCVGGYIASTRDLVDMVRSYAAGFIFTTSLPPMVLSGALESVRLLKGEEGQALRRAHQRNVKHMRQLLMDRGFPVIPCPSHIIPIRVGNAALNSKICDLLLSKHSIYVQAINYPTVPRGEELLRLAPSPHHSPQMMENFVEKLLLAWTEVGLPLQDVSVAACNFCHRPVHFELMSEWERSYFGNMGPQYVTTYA
Conditions: not given
Here is the method: ALAS activity was determined according the article, Stojanovski, B. M., Breydo, L., Hunter, G. A., Uversky, V. N, Ferreira G. C. (2014) Biochim. Biophys. Acta 1844, 2145-2154, which is hereby incorporated by reference in its entirety.
As to `CC1(C)CCN(c2ccc(C(=O)NS(=O)(=O)c3ccc(CN(CCSc4ccccc4)Cc4ccc(S(N)(=O)=O)cc4)cc3)cc2)CC1` [SZ10TA2], the IC50 is 43 ± 5.8 µM.
Turning to `Cn1cc(C(=O)C2CCCCC2)c2cc(C(=O)NS(=O)(=O)c3ccc(CN(CCSc4ccccc4)Cc4ccc(S(N)(=O)=O)cc4)cc3)ccc21` [SZ10TA40], the IC50 is 8.6 ± 0.9 µM.
As to `Cn1cc(C(=O)C2CCCCC2)c2cc(C(=O)NS(=O)(=O)c3ccc(-c4ccc(C(C)(C)C)cc4)cc3)ccc21` [SZ11TA40], the midpoint of inhibition, the IC50, lay at 19.3 ± 2.7 µM.
`O=C(NS(=O)(=O)c1ccc(CNc2cccc([N+](=O)[O-])c2)cc1)c1ccc(CN2C(=O)C(c3ccc(F)cc3F)=C(c3ccc(F)cc3F)C2=O)cc1` [SZ12TA42] had an IC50 of 8.6 ± 0.9 µM.
`COc1cccc(CN(CCSc2ccccc2)Cc2ccc(S(=O)(=O)NC(=O)c3cccc4ccccc34)cc2)c1` [SZ17TA7] had an IC50 of 50 ± 6.1 µM.
As to `COc1ccc(Cc2ccc(C(=O)NS(=O)(=O)c3ccc(-c4ccc(Oc5ccccc5)cc4)cc3)cc2)c(OC)c1OC` [SZ35TA24], inhibition was half-maximal at 31.4 ± 1.8 µM (IC50).

Another assay deals with ALAS.
Test: not given
To be noted: background, reference [3]; read-out: IC50 of known ALAS inhibitor; cited from earlier work.
As to `NC(C(=O)O)C(=O)O` [aminomalonate], the IC50 was 7 µM.

As usually defined, the IC50 is the concentration that inhibits the measured activity by half.
